Measured values as given in patent US20110098352A1, “N,N-DISUBSTITUTED AMINOALKYLBIPHENYL ANTAGONISTS OF PROSTAGLANDIN D2 RECEPTORS” (AMIRA PHARMACEUTICALS, INC., priority 2008, published 2011).

What was measured:
human DP2 receptor = biological target: T1, human DP2 receptor (Homo sapiens, UniProt Q9Y5Y4); experiment: DP2/CRTH2 radioligand binding assay using [3H]PGD2; conditions: [3H]PGD2 binding, membranes of HEK293 cells expressing recombinant human DP2; read-out: hDP2
T1 construct: expressed in transfected cells
T1 sequence (Q9Y5Y4 1-395): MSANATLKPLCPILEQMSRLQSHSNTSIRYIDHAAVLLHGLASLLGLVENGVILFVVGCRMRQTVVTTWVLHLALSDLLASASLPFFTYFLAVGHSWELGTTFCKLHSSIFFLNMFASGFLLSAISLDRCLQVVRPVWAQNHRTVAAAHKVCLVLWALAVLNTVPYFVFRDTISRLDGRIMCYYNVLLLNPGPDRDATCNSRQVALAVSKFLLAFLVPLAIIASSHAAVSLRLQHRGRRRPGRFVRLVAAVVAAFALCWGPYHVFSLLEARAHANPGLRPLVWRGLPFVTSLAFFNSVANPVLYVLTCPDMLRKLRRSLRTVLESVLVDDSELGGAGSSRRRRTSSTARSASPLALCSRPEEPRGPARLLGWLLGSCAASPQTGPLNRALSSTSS
In short: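 HEK293 membranes with stable recombinant human DP2, incubated with 1 nM [3H]PGD2 and compound 60 min at room temperature in pH 7.4 HEPES/MnCl2/EDTA buffer, with or without 0.2% human serum albumin.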

human DP1 receptor = biological target: T2, human DP1 receptor (Homo sapiens, UniProt Q13258); experiment: DP1 radioligand membrane binding assay using [3H]BWA868C; conditions: [3H]BWA868C binding, human platelet membranes; read-out: hDP1
T2 construct: tissue Biological Specialty Corporation; host or cells: human platelets, membranes
T2 sequence (Q13258 1-359): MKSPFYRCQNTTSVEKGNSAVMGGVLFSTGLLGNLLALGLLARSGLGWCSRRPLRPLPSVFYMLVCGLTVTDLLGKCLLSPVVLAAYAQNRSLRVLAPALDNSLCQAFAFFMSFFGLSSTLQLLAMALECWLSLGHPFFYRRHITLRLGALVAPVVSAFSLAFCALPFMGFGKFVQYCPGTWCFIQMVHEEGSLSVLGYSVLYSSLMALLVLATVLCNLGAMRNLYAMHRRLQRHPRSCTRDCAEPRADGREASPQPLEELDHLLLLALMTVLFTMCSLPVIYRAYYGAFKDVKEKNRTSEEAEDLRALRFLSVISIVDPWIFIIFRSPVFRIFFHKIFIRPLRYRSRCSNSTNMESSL

[1] = biological target: T3, recombinant human CRTH2 receptor (Homo sapiens, UniProt Q9Y5Y4); experiment: GTPγS binding assay; type: biochemical; conditions: +HSA; CHO cell membranes, 80 nM PGD2; read-out: hDP2 GTPγS μM (+HSA)
T3 construct: expressed in transfected cells
T3 sequence (Q9Y5Y4 1-395): T1 sequence (Q9Y5Y4 1-395)
Description: The ability of a compound to inhibit binding of GTP to DP2 is assessed via a membrane GTPγS assay. CHO cells stably expressing the recombinant human CRTH2 receptor are resuspended in 10 mM Hepes, 7.4 containing 1 mM DTT, lysed and centrifuged at 75,000×g to pellet the membranes. The membranes are resuspended in 10 mM Hepes, 7.4 containing 1 mM DTT and 10% glycerol. […] The reactions are terminated by rapid filtration through Whatman GF/B glass fibre filter plates. The filter plates are washed 3 times with 1 ml cold Assay Buffer and dried. Scintillant is then added to the plates and the radioactivity retained on the filters is determined on a Packard TopCount (Perkin Elmer). Specific binding is determined as total radioactive binding minus non-specific binding in the absence of the ligand (80 nM PGD2). IC50s were determined using Graphpad prism analysis of drug titration curves.

| SMILES | IC50 (human DP2 receptor) [nM] | IC50 (human DP1 receptor) [nM] | IC50 [1] [µM] |
| --- | --- | --- | --- |
| CCN(Cc1cc(C(F)(F)F)ccc1-c1cc(CC(=O)O)ccc1OC)C(=O)C(F)(F)F [Compound 1-32, (2′-{[Ethyl-(2,2,2-trifluoro-acetyl)-amino]-methyl}-6-methoxy-4′-trifluoromethyl-biphenyl-3-yl)-acetic acid] | < 300 | > 1000 | < 0.3 |
| COc1ccc(CC(=O)O)cc1-c1ccc(C(F)(F)F)cc1CN(C(C)=O)C1CC1 [Compound 1-12, {2′-[(Acetyl-cyclopropyl-amino)-methyl]-6-methoxy-4′-trifluoromethyl-biphenyl-3-yl}-acetic acid] | < 300 | > 1000 | < 0.3 |
| CCN(Cc1cc(C(F)(F)F)ccc1-c1cc(CC(=O)O)ccc1OC)C(=O)C(C)(C)Oc1ccc(Cl)cc1 [Compound 1-118, [2′-({[2-(4-Chloro-phenoxy)-2-methyl-propionyl]-ethyl-amino}-methyl)-6-methoxy-4′-trifluoromethyl-biphenyl-3-yl]-acetic acid] | < 300 | > 1000 | < 0.3 |

More lines, now with the values ahead:

| IC50 (human DP2 receptor) [nM] | IC50 (human DP1 receptor) [nM] | IC50 [1] [µM] | SMILES |
| --- | --- | --- | --- |
| < 300 | > 1000 | < 0.3 | COc1ccc(CC(=O)O)cc1-c1ccc(C(F)(F)F)cc1CN(C)C(=O)OCc1ccccc1 [Compound 1-27, {2′-[(Benzyloxycarbonyl-methyl-amino)-methyl]-6-methoxy-4′-trifluoromethyl-biphenyl-3-yl)-acetic acid] |
| < 300 | > 1000 | < 0.3 | CCN(Cc1cc(C(F)(F)F)ccc1-c1cc(CC(=O)O)ccc1Cl)C(=O)OCc1ccccc1 [Compound 1-110] |
| < 300 | > 1000 | < 0.3 | CCN(Cc1cc(C(F)(F)F)ccc1-c1cc(CC(=O)O)ccc1OC)C(=O)NCc1ccccc1 [Compound 1-96, [2′-(3-Benzyl-1-ethyl-ureidomethyl)-6-methoxy-4′-trifluoromethyl-biphenyl-3-yl]-acetic acid] |
